≈ marks a conversion by molar mass, not a printed value.
Experiments:
[1] = system: A-375 (melanoma); assay: MTS cell viability assay, A-375; type: cell-based; details: Homo sapiens, 72 h
Method: (§1) All treatments were performed in triplicate. […] Cells were incubated at 37° C. for 72 h.

[2] = system: OVCAR-3 (ovarian carcinoma); assay: MTS cell viability assay, OVCAR-3; type: cell-based; details: Homo sapiens, 72 h
Method: as §1

[3] = system: SK-MEL-2 (melanoma); assay: MTS cell viability assay, SK-MEL-2; details: Homo sapiens, SK-MEL-2, 72 h, read-out: IC50 SK-MEL-2
Method: (§2) Cells were plated, the evening before treatment, for each treatment on 96-well plates (1×10^4 cells/well) in 100 μL volume per well. Drug solutions were prepared by diluting each test compound in DSMO (10 mM) with the appropriate cell growth media for each individual cell line, or in “Universal Media” if several cell lines were to be assayed in parallel, immediately prior to cell treatment. Universal Media consisted of 5 mL sodium pyruvate (100×liquid stock, CellGro), 5 mL glucose (100×, 45% liquid stock, CellGro), 5 mL Penicillin/Streptomycin (100×liquid stock, CellGro), 10 mL sodium bicarbonate (50×liquid stock, CellGro), 25 mL Fetal Calf Serum, 1.25 mL insulin (4 mg/mL, Gibco) and 449 mL RPMI media with 2 mM glutamine for a total volume of 500 mL. Cells were treated by aspirating media from each well and adding 80 μL of each drug solution to the attached cells. All treatments were performed in triplicate. Growth media (80 μL) were added to 3 blank wells (no cells) to measure background from the growth media Growth media alone (no DMSO or test compond) was added to 2 wells containing cells to measure the baseline MTS activity and vehicle (DMSO) control solutions were also included to monitor basal toxicity from DMSO. Cells were incubated at 37° C. for 72 h. MTS reagent (per 96-well plate) were prepared by combining 2 mL of MTS working solution (Cell Titer AQueous Non-Radioactive Cell Proliferation Assay, Promega, cat#G1112), 100 μL of 0.92 mg/mL phenazine methosulfate/Dulbecco's PBS and 2.1 mL growth media. MTS reagent (40 μL) were added to each well and incubated at 37° C. for 1.5 to 4 h. Plates were gently shaken by hand until solution in each well appeared homogenous. Absorbances at 490 nm were measured on a plate reader at multiple time points following the addition of MTS reagent for each plate. Triplicate absorbance (490 nm) measurements were averaged following background (no cell) subtraction for each drug concentration. Percent Cell Viability was calculated for each drug concentration using the following equation: {[Absorbances(drug treated)]/[Absorbances(DMSO treated)]}×100%
(§3) Percent viability (y-axis) was plotted against drug concentration (x-axis) and the resulting graph was used to determine the 50% inhibitory concentration (IC50) for each drug.

[4] = system: MCF-7 (breast carcinoma); assay: MTS cell viability assay, MCF-7; type: cell-based; details: Homo sapiens, MCF7, 72 h
Method: as §1

[5] = system: HT-29 (colon carcinoma); assay: MTS cell viability assay, HT-29; type: cell-based; details: Homo sapiens, 72 h
Method: as §1

[6] = system: Daoy (glioblastoma); assay: MTS cell viability assay, Daoy; details: Homo sapiens, Daoy, 72 h, read-out: IC50 Daoy
Method: as §2, §3

[7] = system: LN-229 (glioblastoma); assay: MTS cell viability assay, LN-229; type: cell-based; details: Homo sapiens, 72 h
Method: as §1

[8] = system: SK-MEL-2 cells; assay: Caspase activation assay, SK-MEL-2; type: cell-based; details: SK-MEL-2
Method: All treatments were performed in duplicate. […] Cells were incubated at 37° C. for 8 h. Caspase assay reagent (per 96-well plate) was prepared according to manufacturer's instructions (Homogeneous Caspases Assay, fluorometric, Roche) by combining 6.3 mL Incubation Buffer with 0.7 mL of Substrate Stock Solution. Caspase assay reagent (70 μL) was added to each well; the plate was gently shaken by hand for 15-20 seconds and incubated at 37° C. for 4 h.
Fluorescent emission was measured at 535 nm on a plate reader using the “homogeneous caspase” program (excitation Wavelength=490 nm, emission wavelength=535 nm). Duplicate wells for each treatment were averaged following background (no cells) subtraction (emission 535 nm value from all experimental emission 535 nm values) for each drug concentration.
DMSO treatment represented baseline caspase activation in the absence of drug. The percent changes in caspase activity were plotted on the y-axis for each drug treatment.
Caspase activation assays were conducted to further characterize the mode of cell death. A treatment time and dose at which maximum caspase activation was observed prior to massive cell destruction would be indicative of apoptosis induction. SK-MEL-2 cells were treated with 5, 15, and 50 μM of the compound for 2, 4, 6, 8, 16, and 24 h in the absence of FBS (Fetal Bovine Serum).

SMILES	IC50 [1]	IC50 [2]	IC50 [3]	IC50 [4]	IC50 [5]	IC50 [6]	IC50 [7]	caspase activation in SK-MEL-2 (in words) [8]
C=C(C)[C@@H]1CC[C@]2(C(=O)O)CC[C@]3(C)[C@H](CC[C@@H]4[C@@]5(C)CC[C@H](O)C(C)(C)[C@@H]5CC[C@]43C)[C@@H]12 [Compound 1, (1R,3aS,5aR,5bR,7aR,9S,11aR, 11bR,13aR,13bR)-9-hydroxy-5a,5b,8,8,11a-pentamethyl-1-(prop-1-en-2-yl)icosahydro-1H-cyclopenta[a]chrysene-3a-carboxylic acid, reference compound]	51 µg/mL (≈ 112 µM)	59 ± 4.58 µg/mL (≈ 129 µM)	33.2 ± 3.77 µg/mL (≈ 72.7 µM)	50 µg/mL (≈ 109 µM)	37 µg/mL (≈ 81 µM)	31.3 ± 2.28 µg/mL (≈ 68.5 µM)	61 µg/mL (≈ 134 µM)	
C=C(C)[C@@H]1CC[C@]2(COC(=O)CBr)CC[C@]3(C)[C@H](CC[C@@H]4[C@@]5(C)CCC(=O)C(C)(C)[C@@H]5CC[C@]43C)[C@@H]12 [Compound 18, ((1R,3aS,5aR,5bR,7aR,11aR,11bR,13aR,13bR)-5a,5b,8,8,11a-pentamethyl-9-oxo-1-(prop-1-en-2-yl)icosahydro-1H-cyclopenta[a]chrysen-3a-yl)methyl 2-bromoacetate]	14 µg/mL (≈ 24.9 µM)	8 µg/mL (≈ 14.2 µM)	42 µg/mL (≈ 74.8 µM)	48 µg/mL (≈ 85.5 µM)	36 µg/mL (≈ 64.1 µM)	< 2 µg/mL		
C=C(C)[C@@H]1CC[C@]2(COC(=O)COC)CC[C@]3(C)[C@H](CC[C@@H]4[C@@]5(C)CC[C@H](OC(C)=O)C(C)(C)[C@@H]5CC[C@]43C)[C@@H]12 [Compound 19, ((1R,3aS,5aR,5bR,7aR,9S,11aR,11bR,13aR,13b R)-9-acetoxy-5a,5b,8,8,11a-pentamethyl-1-(prop-1-en-2-yl)icosahydro-1H-cyclopenta[a]chrysen-3a-yl)methyl 2-methoxyacetate]	7 µg/mL (≈ 12.6 µM)	> 75 µg/mL	6 µg/mL (≈ 10.8 µM)	> 75 µg/mL	> 75 µg/mL	7 µg/mL (≈ 12.6 µM)	> 75 µg/mL	
C=C(C)[C@@H]1CC[C@]2(CO)CC[C@]3(C)[C@H](CC[C@@H]4[C@@]5(C)CC6=C(ON(O)C6)C(C)(C)[C@@H]5CC[C@]43C)[C@@H]12 [Compound 33, (1R,3aS,5aR,5bR,7aR,12aR,12bR,14aR,14bR)-3a-(hydroxymethyl)-1-isopropenyl-5a,5b,8,8,12a-pentamethyl-1,2,3,3a,4,5,5a,5b,6,7,7a,8,11,12,12a,12b,13,14, 14a,14b-icosahydro-10H-cyclopenta[7,8]chryseno[3,2-d]isoxazol-10-ol]								induced caspase activation
C=C(C)[C@@H]1CC[C@]2(COC(=O)CBr)CC[C@]3(C)[C@H](CC[C@@H]4[C@@]5(C)C=C(C#N)C(=O)C(C)(C)[C@@H]5CC[C@]43C)[C@@H]12 [Compound 39, ((1R,3aS,5aR,5bR,7aR,11aR,11bR,13aR,13bR)-10-cyano-5a,5b,8,8,11a-pentamethyl-9-oxo-1-(prop-1-en-2-yl)-2,3,3a,4,5,5a,5b,6,7,7a,8,9,11a,11b,12,13,13a,13b-octadecahydro-1H-cyclopenta[a]chrysen-3a-yl)methyl 2-bromoacetate]	4 µg/mL (≈ 6.84 µM)	7 µg/mL (≈ 12 µM)	20 µg/mL (≈ 34.2 µM)	13 µg/mL (≈ 22.2 µM)	6 µg/mL (≈ 10.3 µM)	< 2 µg/mL	7 µg/mL (≈ 12 µM)	induced caspase activation
C=C(C)[C@@H]1CC[C@]2(COC(=O)COCC)CC[C@]3(C)[C@H](CC[C@@H]4[C@@]5(C)C=C(C#N)C(=O)C(C)(C)[C@@H]5CC[C@]43C)[C@@H]12 [Compound 40, ((1R,3aS,5aR,5bR,7aR,11aR,11bR,13aR,13bR)-10-cyano-5a,5b,8,8,11a-pentamethyl-9-oxo-1-(prop-1-en-2-yl)-2,3,3a,4,5,5a,5b,6,7,7a,8,9,11a,11b,12,13,13a,13b-octadecahydro-1H-cyclopenta[a]chrysen-3a-yl)methyl 2-ethoxyacetate]	6 µg/mL (≈ 10.9 µM)	10 µg/mL (≈ 18.2 µM)	> 10 µg/mL	30 µg/mL (≈ 54.6 µM)	10 µg/mL (≈ 18.2 µM)	4 µg/mL (≈ 7.28 µM)	28 µg/mL (≈ 50.9 µM)	

— patent US20070232577A1, “Synthetic pentacyclic triterpenoids and derivatives of betulinic acid and betulin” (Advanced Life Sciences, Inc., priority 2006, published 2007)
